{
  "source": "patent US20120128777A1",
  "about": "“COMPOSITIONS CONTAINING LIPID MICRO- OR NANOPARTICLES FOR THE ENHANCEMENT OF THE DERMAL ACTION OF SOLID PARTICLES” (PHARMASOL GMBH, priority 2008, published 2012)",
  "tested_on": "skin",
  "conditions": "50 volunteers, undiluted, patch 48 hours, read after 48 hours and after 72 hours",
  "data": [
    {"smiles": "CCCCCCCCCCCCOS(=O)(=O)[O-].[Na+]", "note": "[SDS, Sodium dodecyl sulphate]", "values": [
      {"measurement": "positive reactions", "value": 11, "unit": "subjects"}
    ]}
  ]
}
